Source: PubChem BioAssay (NCI)
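A five-concentration, 48-hour dose response in 96-well plates underlies each endpoint, interpolated linearly between surrounding concentrations. Here, GI50 denotes the concentration required for 50% inhibition of growth. The concentration for full growth arrest is given as TGI.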

Experiments:
Test in all cases: inhibition of tumour cell growth, NCI panel, 48 h
786-0 renal = system: 786-0 renal
A498 renal = system: A498 renal
A549 NSCLC = system: A549 NSCLC
ACHN renal = system: ACHN renal
BT-549 breast = system: BT-549 breast
CAKI-1 renal = system: CAKI-1 renal
CCRF-CEM leukemia = system: CCRF-CEM leukemia
COLO 205 colon = system: COLO 205 colon
DU-145 prostate = system: DU-145 prostate
EKVX NSCLC = system: EKVX NSCLC
HCC-2998 colon = system: HCC-2998 colon
HCT-116 colon = system: HCT-116 colon
HCT-15 colon = system: HCT-15 colon
HL-60(TB) leukemia = system: HL-60(TB) leukemia
HOP-62 NSCLC = system: HOP-62 NSCLC
HOP-92 NSCLC = system: HOP-92 NSCLC
HS 578T breast = system: HS 578T breast
HT29 colon = system: HT29 colon
IGROV1 ovarian = system: IGROV1 ovarian
K-562 leukemia = system: K-562 leukemia
KM12 colon = system: KM12 colon
LOX IMVI melanoma = system: LOX IMVI melanoma
M14 melanoma = system: M14 melanoma
MALME-3M melanoma = system: MALME-3M melanoma
MCF7 breast = system: MCF7 breast
MDA-MB-231 breast = system: MDA-MB-231 breast
MDA-MB-435 = system: MDA-MB-435
MOLT-4 leukemia = system: MOLT-4 leukemia
NCI-H226 lung = system: NCI-H226 lung
NCI-H23 lung = system: NCI-H23 lung
NCI-H460 lung = system: NCI-H460 lung
NCI-H522 lung = system: NCI-H522 lung
NCI/ADR-RES ovarian = system: NCI/ADR-RES ovarian
OVCAR-3 ovarian = system: OVCAR-3 ovarian
OVCAR-4 ovarian = system: OVCAR-4 ovarian
OVCAR-5 ovarian = system: OVCAR-5 ovarian
OVCAR-8 ovarian = system: OVCAR-8 ovarian
PC-3 prostate = system: PC-3 prostate
RPMI-8226 leukemia = system: RPMI-8226 leukemia
RXF 393 renal = system: RXF 393 renal
SF-268 CNS = system: SF-268 CNS
SF-295 CNS = system: SF-295 CNS
SF-539 CNS = system: SF-539 CNS
SK-MEL-2 melanoma = system: SK-MEL-2 melanoma
SK-MEL-28 melanoma = system: SK-MEL-28 melanoma
SK-MEL-5 melanoma = system: SK-MEL-5 melanoma
SK-OV-3 ovarian = system: SK-OV-3 ovarian
SN12C renal = system: SN12C renal
SNB-19 CNS = system: SNB-19 CNS
SNB-75 CNS = system: SNB-75 CNS
SR leukemia = system: SR leukemia
SW-620 colon = system: SW-620 colon
T-47D breast = system: T-47D breast
TK-10 renal = system: TK-10 renal
U251 CNS = system: U251 CNS
UACC-257 melanoma = system: UACC-257 melanoma
UACC-62 melanoma = system: UACC-62 melanoma
UO-31 renal = system: UO-31 renal

## O=C(CCl)Nc1ccc2c(c1)C(=O)c1ccccc1C2=O
786-0 renal
  GI50: 1670 nM
  TGI: 3560 nM
A498 renal
  GI50: 12200 nM
  TGI: 25800 nM
A549 NSCLC
  GI50: 8510 nM
  TGI: 23500 nM
ACHN renal
  GI50: 1710 nM
  TGI: 3170 nM
BT-549 breast
  GI50: 1460 nM
  TGI: 3580 nM
CAKI-1 renal
  GI50: 1590 nM
  TGI: 2960 nM
CCRF-CEM leukemia
  GI50: 676 nM
  TGI: > 100000 nM
COLO 205 colon
  GI50: 1480 nM
  TGI: 3330 nM
DU-145 prostate
  GI50: 1800 nM
  TGI: 3360 nM
EKVX NSCLC
  GI50: 2200 nM
  TGI: 6350 nM
HCC-2998 colon
  GI50: 1860 nM
  TGI: 3650 nM
HCT-116 colon
  GI50: 790 nM
  TGI: 2970 nM
HCT-15 colon
  GI50: 730 nM
  TGI: 2440 nM
HL-60(TB) leukemia
  GI50: 2410 nM
  TGI: 5330 nM
HOP-62 NSCLC
  GI50: 2980 nM
  TGI: 8500 nM
HOP-92 NSCLC
  GI50: 3720 nM
  TGI: 9730 nM
HS 578T breast
  GI50: 3560 nM
  TGI: 20100 nM
HT29 colon
  GI50: 1660 nM
  TGI: 3800 nM
IGROV1 ovarian
  GI50: 990 nM
  TGI: 3230 nM
K-562 leukemia
  GI50: 1030 nM
  TGI: > 100000 nM
KM12 colon
  GI50: 3030 nM
  TGI: 9340 nM
LOX IMVI melanoma
  GI50: 390 nM
  TGI: 994 nM
M14 melanoma
  GI50: 1310 nM
  TGI: 2980 nM
MALME-3M melanoma
  GI50: 1390 nM
  TGI: 3110 nM
MCF7 breast
  GI50: 1630 nM
  TGI: 3640 nM
MDA-MB-231 breast
  GI50: 1650 nM
  TGI: 4640 nM
MDA-MB-435
  GI50: 2050 nM
  TGI: 5460 nM
MOLT-4 leukemia
  GI50: 2240 nM
  TGI: > 100000 nM
NCI-H226 lung
  GI50: 2390 nM
  TGI: 6760 nM
NCI-H23 lung
  GI50: 1700 nM
  TGI: 4150 nM
NCI-H460 lung
  GI50: 2130 nM
  TGI: 5610 nM
NCI-H522 lung
  GI50: 533 nM
  TGI: 1220 nM
NCI/ADR-RES ovarian
  GI50: 2160 nM
  TGI: 6560 nM
OVCAR-3 ovarian
  GI50: 1720 nM
  TGI: 3270 nM
OVCAR-4 ovarian
  GI50: 3480 nM
  TGI: 11300 nM
OVCAR-5 ovarian
  GI50: 2500 nM
  TGI: 6890 nM
OVCAR-8 ovarian
  GI50: 2350 nM
  TGI: 6350 nM
PC-3 prostate
  GI50: 2770 nM
  TGI: 11600 nM
RPMI-8226 leukemia
  GI50: 2040 nM
  TGI: 5620 nM
RXF 393 renal
  GI50: 2000 nM
  TGI: 3780 nM
SF-268 CNS
  GI50: 1790 nM
  TGI: 4590 nM
SF-295 CNS
  GI50: 2420 nM
  TGI: 10500 nM
SF-539 CNS
  GI50: 2440 nM
  TGI: 6490 nM
SK-MEL-2 melanoma
  GI50: 1580 nM
  TGI: 3850 nM
SK-MEL-28 melanoma
  GI50: 3800 nM
  TGI: 9980 nM
SK-MEL-5 melanoma
  GI50: 1160 nM
  TGI: 2420 nM
SK-OV-3 ovarian
  GI50: 3710 nM
  TGI: 17000 nM
SN12C renal
  GI50: 1410 nM
  TGI: 3010 nM
SNB-19 CNS
  GI50: 2940 nM
  TGI: 11500 nM
SNB-75 CNS
  GI50: 2190 nM
  TGI: 8440 nM
SR leukemia
  GI50: 56.7 nM
  TGI: > 100000 nM
SW-620 colon
  GI50: 1430 nM
  TGI: 2920 nM
T-47D breast
  GI50: 1110 nM
  TGI: 2870 nM
TK-10 renal
  GI50: 1870 nM
  TGI: 3720 nM
U251 CNS
  GI50: 1860 nM
  TGI: 4110 nM
UACC-257 melanoma
  GI50: 5590 nM
  TGI: 13900 nM
UACC-62 melanoma
  GI50: 1510 nM
  TGI: 3170 nM
UO-31 renal
  GI50: 1730 nM
  TGI: 3470 nM
